In patent US20020086027A1, “Composition and method for enhancing immunological memory response” (priority 1998, published 2002):
“Also recorded” adds a separate entry of the source.

Key:
human T cells = assay: Secondary (recall) alloproliferative response of T cells primed in vitro; type: cell-based; conditions: for memory/recall proliferative response: primed with allo-PBMCs in presence of 100 ug/ml drug, restimulated without drug
Procedure: In this system, we have used responses to first exposure as an indication of primary responses. When cells stimulated in this fashion are rested in culture and then restimulated with the same stimulator PBMCs, the 'recall' response measured are taken as an indication of immune memory. Proliferation is measured by the incorporation of radioactive tritiated thymidine in dividing cells. For priming, responder and stimulator cells mixed in 2-5 ml cultures in a ratio of 1:1-3:1. After five days of incubation, the cells were harvested, counted and viable cells used as primed responders with g-irradiated allostimulators in secondary alloproliferation assays, which were pulsed with (H^3)-thymidine after four days for estimating cell proliferation. For flow cytometric analysis, cells were separated from debris by Ficoll-Paque gradient centrifugation before staining. […] Sigma Chemical Co.) at room temperature for 20 minutes, washed extensively and used. For priming in vitro, responder PBMCs were incubated for 72 or 144 h at a ratio of either 1:1 or 2:1 respectively, with stimulator PBMCs. Where appropriate, CsA. Aph. and/or […] were added at the concentrations indicated, of PFA-fixed PBMCs were used instead.

[1] = system: allo-specific precursor T cells; assay: Limiting dilution analysis of clonal responder frequency and burst size; type: cell-based, human
From the text: Limiting dilution analyses were used to calculate the number of transplantation antigen-specific memory T cells in cultures primed in the presence or absence of POX. Multiple replicate wells of titrated numbers of primed responders were restimulated. the numbers of wells showing proliferative responses at each responder dose were used to calculate the frequency of responding memory t cells in the primed populations. estimates of the extent of proliferation in wells effectively containing single responder cells served as a measure of clonal burst size. […] To determine the frequence of all-specific precursor cells in the various responder populations, titrating numbers (from 10,000 to 200 per well) of variously primed cells were added to a constant number (1×10^5 per well) of g-irradiated stimulator PBMCs. Of the 48 wells plated per responder dose, those wells showing a response at least twice that of the background value were scored positive. The responder frequency was calculated by taking the number of negative wells into account. The response was considered clonal at the responder cell number where the proportion of positively responding wells was less than 37%. At responder cell concentrations showing clonal frequencies, the average cpm values of responding (versus non-responding) wells were used as an estimate of the average clonal burst size of single responding T cells.

CD25+ primed T cells = assay: Propidium iodide staining for apoptosis of CD25+ primed T cells; type: cell-based, human; conditions: over the 48 hour rest period after priming with drug
Procedure: For analysis of cell surface markers, primed cell populations separated on Ficoll-Paque gradients were used. […] Briefly, 1-3×10^5 cells per well were stained with primary antibodies at 4° C., followed by appropriately labeled secondary reagents if required. Samples were analyzed using a Bryte flow cytometer (bio-Rad, Hemel Hampstead, UK). Antibodies to the T cell markers CD3 (OKT3), CD4 (OKT4), and to the activation markers CD25 and Fas (CD95) were used for staining. To detect apoptosis using propidium iodide (PI, Sigma Chemical Co.), antibody-stained cells were fixed and permeabilized with 70% ethanol, washed, and PI […] added just before cytometric analysis. Data were analyzed using FlowJo software (Treestar, San Jose, Calif.).
The differences between the kinetics of CD25 expression over two days of rest culture prompted the question of whether this was linked to effects of POX on the survival of T cells activated during priming. Almost all CD25^+ cells generated during priming were CD4 T cells (FIG. 17A). therefore, responder populations primed variously were stained in a two-color flow cytometric analysis for CD25 and Fas, since Fas engagement is involved in activation induced T cell death. The frequency and level of Fas expression in the CD25^+ population was unchanged in the presence (FIG. 20, panels B and D) or absence (panels A and C) of POX during priming. […]

[2] = orally administered; cited from earlier work
[3] = system: experimental autoimmune encephalomyelitis; conditions: rat, in vivo; cited from earlier work
[4] = system: mercuric chloride-induced arthritis; conditions: rats; cited from earlier work

SMILES: CC(=O)CCCCn1c(=O)c2c(ncn2C)n(C)c1=O [POX, pentoxifylline]
- subsequent alloproliferative response of unprimed cells incubated with drug alone (human T cells; 100 μg/ml, no stimulators during incubation): does not enhance
- enhancing effect on the recall response (human T cells; lower doses of Trental during priming): decreases
- secondary response to unfixed PBMCs (human T cells; primed with PF-fixed PBMCs in presence of POX 100 ug/ml): enhanced
- recall response (human T cells; primed with Trental plus Aph vs Aph alone): still higher
- memory/recall proliferative response (human T cells): much improved
- memory/recall proliferative response (human T cells; listed as Trental): enhanced
- frequency of alloreactive responder (memory) T cells ([1]; drug present during priming (POX 100 ug/ml)): enhanced; also recorded: significantly enhances
- clonal burst size (average clonal proliferative response) ([1]; drug-treated vs untreated during priming): without altering; also recorded: not significantly different
- proportion of apoptotic cells in the CD25+ population (CD25+ primed T cells): does not increase significantly
- LD50 [2]: about 1385 milligrams per kilogram body weight
- protection against EAE [3]: significant protection
- protection against arthritis [4]: significant protection
